Laboratory results from patent US11046729B2, “Dipeptide analogs as TGF-beta inhibitors” (SOUTHERN RESEARCH INSTITUTE, priority 2017, dated 2021).
Values after ≈ are worked out from the molar mass of the structure shown. Values joined by “and” are separate entries in the source; they are usually repeats but may differ in a detail not shown here. Identical values can stand only once. Like-named read-outs stand apart in the source and are kept apart here. Non-standard residues stand in square brackets, D forms with d. Residues, ends and D or L forms follow the SMILES beside them. *: point of attachment. Orn = NCCC[C@H](N)C(=O)O; Ac5c = NC1(C(=O)O)CCCC1; Aib = CC(C)(N)C(=O)O; Butyryl = CCCC(=O)*

Columns and labels:
[1] = target: T1, purified human platelet TSP-1 (activation of recombinant latent TGF-β1) (Homo sapiens, UniProt P07996); experiment: ELISA-based screening assay: TSP-1 activation of recombinant latent TGF-β1; assay type: biochemical; settings: for % Inhibition at 50 pM: Table 2, 5e-05 µM
T1 construct: purified human platelet TSP-1 was incubated with compounds; from tissue; host or cells: human platelets
Procedure: For initial screening, an ELISA-based screening assay was used in which purified human platelet TSP-1 was incubated with compounds and then incubated with recombinant latent TGF-β1 (purchased from R&D Systems). Activity is measured in a commercially available ELISA which detects only active TGF-β (R &D Systems). Activity in the presence of compounds is compared to activity in TSP-1+latent TGF-β samples without inhibitory compounds (Lu et al. (2016) Am J Pathol 186:678-690).

[2] = target: recombinant latent TGF-β1 (purchased from R&D Systems) (UniProt P01137); experiment: cell-based or functional assay
MSCs = experiment: Osteoblast differentiation by MSCs under osteogenic conditions; assay type: cell-based; settings: osteogenic media, 20 days; TGF-β 5 ng/mL, TSP1 10 nM, LSKL 25 μM
Procedure: Referring to FIG. 1A, MSCs were grown to confluence in basal (control) media. Cells were treated with control growth media, osteogenic media, or osteogenic media with TGF-β (5 ng/mL) or stripped TSP1 (10 nM), TSP1+LSKL (SEQ ID NO:1) (25 μM), TSP1+SLLK (SEQ ID NO:2) (25 μM control peptide), or TSP1+anti-TGF-β (5 μg/mL). Cultures were fed daily for 20 days. Alkaline phosphatase staining is representative of triplicate wells.
Referring to FIG. 1B, cells were treated every 2 days for 20 days with MSC growth media (control) or osteogenic media with TGF-β (5 ng/mL) or TSP1 (10 nM) daily treatment with 25 μM LSKL (SEQ ID NO:1) or SLLK (SEQ ID NO:2) peptides. RNA isolated from cells was used for RT-PCR analysis of Runx2 expression. Samples were run in duplicate and each experimental treatment in triplicate.

CAG MM cells = experiment: TGF-β activity in CAG MM cells (phospho-Smad 2 immunoblot); assay type: cell-based, human; settings: 30 nM TSP1, 6 hrs
Procedure: Referring to FIG. 4A, CAG MM cells were incubated with 30 nM TSP1 for 6 hrs LSKL (SEQ ID NO:1) or SLLK (SEQ ID NO:2). Cell lysates were immunoblotted for phosphor-Smad 2. Blots were stripped and reprobed for total Smad 2/3 and GAPDH. Results are normalized to GAPDH (untreated controls=1). LSKL (SEQ ID NO:1) reduces TSP1 induced treatment or luciferase activity in cells treated with active TGF-β (not shown).

CAG-heparanase MM cells = experiment: PAI-1 promoter luciferase reporter assay of conditioned media of CAG-heparanase MM cells treated with TSP1; assay type: cell-based, human; settings: 67 nM TSP1, conditioned media
Procedure: Referring to FIG. 4B, CAG-heparanase MM cells were treated with 67 nM TSP1 and conditioned media were assessed for TGF-β activity using PAI-1 promoter luciferase reporter assay. There is ˜[…] TGF-β in the added TSP1 and LSKL (SEQ ID NO:1) blocks 80% of the CAG-heparanase MM cell generated TGF-β activity.

[3] = 30 mg/kg i.p., 3 times weekly, 15 weeks; cited from earlier work
[4] = cited from earlier work
CAG human myeloma cells = experiment: SCID-tibia MM model; assay type: in vivo, SCID mice
Procedure: Referring to FIG. 2A and FIG. 2B, CAG human myeloma cells were injected into the intratibial marrow space of SCID mice. After 2 weeks, tumors were imaged by bioluminescence and serum 1 g kappa levels measured. Mice were randomized to equalize 1 g kappa levels. Osmotic pumps were implanted subcutaneously to deliver saline or LSKL peptide (SEQ ID NO:1) (30 mg/kg/day) (n=10/group). Tumors were imaged and serum 1 g kappa levels measured at 2 and 4 weeks of treatment. Data are means SEM. Bioluminescence; *p=0.019 ANOVA, serum kappa; p=0.037, t-test.
Referring to FIG. 3A-C, at 4 weeks of treatment, tibiae from mice injected with CAG MM cells were fixed and stained with antibody to phosphor-Smad 2. Left panels are from 2 different saline treated mice and the right panels are from LSKL (SEQ ID NO:1)-treated mice. Pixels of brown staining were quantified in 4 fields per animal. 5-6 animals per group were analyzed. Data are the percent area exceeding the threshold for positive staining (FIG. 3A). […] P=0.004.

[5] = system: TSP-1 activation of latent TGF-β; experiment: cell-based assay of TSP1 activation of latent TGF-β (Table 3; Secondary Assay of Table 1); parameters: species or system human
Procedure: To specifically assess activity of compounds in liver cell specific assays, two different assays were used. In the first, human hepatic stellate cells were incubated overnight in low serum media to condition the media with secreted latent TGF-β. Purified TSP1 either preincubated with compounds or not will be added to cultures and then conditioned media harvested to assess TGF-β biological activity using the R&D Systems ELISA as above. Hepatic stellate cells will be purchased from commercial sources. Although hepatic stellate cells are the primary drivers of liver fibrosis, conditions which drive liver fibrosis can induce hepatocyte TSP-1 expression which can then have paracrine effects on controlling TGF-β activation in hepatic stellate cells. Furthermore, TGF-β can negatively impact hepatocyte regeneration following injury. Therefore, the ability of compounds to blockTSP-1 activation of latent TGF-β will also be assessed in cultured primary human hepatocytes following the protocol described for the hepatic stellate cells. Similar approaches have successfully been used to screen compounds which inhibit human myeloma cell derived latent TGF-β activation by TSP-1 (Lu et al. (2016) Am J Pathol 186:678-690).

[6] = Human liver microsomal stability; assay type: in vitro ADME; settings: human liver microsomes; read-out: Human Liver Microsomal Stability t1/2
Log D = assay type: physicochemical
Solubility = assay type: physicochemical
[7] = Rat liver microsomal stability; assay type: in vitro ADME; settings: rat liver microsomes; read-out: Rat Liver Microsomal Stability t1/2
[8] = Pharmacokinetics (% F, T1/2, Tmax); settings: in vivo
[9] = target: TSP1 (activation of recombinant latent TGF-β1) (Homo sapiens, UniProt P07996); experiment: Latent TGF-β activation by TSP1 in vitro (Quantikine ELISA for TGF-β1); assay type: biochemical; settings: TSP1 155 nM
Procedure: Previous studies have illustrated the ability of tripeptide analogs such as compound no. 93 to block latent TGF-β activation by TSP1 in vitro (see FIG. 5 and FIG. 6). Briefly, TSP1 (155 nM, 20 μg/ml) was incubated for 10 min at 37° C. with 93, LSKL (SEQ ID NO:1), or control SLLK (SEQ ID NO:2) peptide. The mixture was then incubated with […] recombinant latent TGF-β1 for 20 min at 37° C. TGF-β1 activity was measured using an R&D systems Quantikine ELISA for TGF-β1.

[10] = ELISA-based assay, Table 2, read-out: % Inhibition at 50 pM
[11] = Conc. of compound 1 pM (last column: 30 nM)
[12] = Conc. of compound 50 pM (last column: 300 nM)
[13] = Conc. of compound 100 pM (last column: 3 μM)

T1 sequence (P07996 19-1170): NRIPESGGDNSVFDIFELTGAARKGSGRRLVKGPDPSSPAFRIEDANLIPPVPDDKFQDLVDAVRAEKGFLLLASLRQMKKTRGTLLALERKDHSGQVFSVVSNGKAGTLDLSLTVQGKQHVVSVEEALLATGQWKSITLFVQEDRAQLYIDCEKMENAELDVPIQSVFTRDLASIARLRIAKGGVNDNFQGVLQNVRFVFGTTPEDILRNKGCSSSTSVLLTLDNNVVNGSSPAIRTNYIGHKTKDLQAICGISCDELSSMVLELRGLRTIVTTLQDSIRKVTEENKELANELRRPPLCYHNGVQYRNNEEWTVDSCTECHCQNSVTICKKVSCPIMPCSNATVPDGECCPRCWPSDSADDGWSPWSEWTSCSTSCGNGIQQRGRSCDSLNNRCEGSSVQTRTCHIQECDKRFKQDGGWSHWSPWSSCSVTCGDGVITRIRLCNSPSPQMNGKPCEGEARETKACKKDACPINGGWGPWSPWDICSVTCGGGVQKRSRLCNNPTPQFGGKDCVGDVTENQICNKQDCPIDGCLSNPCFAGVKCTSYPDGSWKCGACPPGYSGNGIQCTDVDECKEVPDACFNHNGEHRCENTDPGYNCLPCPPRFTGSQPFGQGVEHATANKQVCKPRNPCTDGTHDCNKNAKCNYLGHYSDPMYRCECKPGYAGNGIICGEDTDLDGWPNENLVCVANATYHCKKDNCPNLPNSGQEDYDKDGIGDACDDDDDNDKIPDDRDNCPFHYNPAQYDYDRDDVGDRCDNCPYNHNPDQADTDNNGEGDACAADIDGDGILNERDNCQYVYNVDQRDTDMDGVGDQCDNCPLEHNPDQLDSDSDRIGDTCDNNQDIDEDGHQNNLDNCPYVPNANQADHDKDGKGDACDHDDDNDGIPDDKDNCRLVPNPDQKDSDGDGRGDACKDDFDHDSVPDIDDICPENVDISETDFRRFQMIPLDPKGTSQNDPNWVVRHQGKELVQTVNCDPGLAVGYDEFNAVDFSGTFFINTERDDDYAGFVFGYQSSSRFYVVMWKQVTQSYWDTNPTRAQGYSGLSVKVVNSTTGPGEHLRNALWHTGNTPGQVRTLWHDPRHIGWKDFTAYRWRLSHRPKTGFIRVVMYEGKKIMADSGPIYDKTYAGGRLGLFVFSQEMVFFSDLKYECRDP
Chain of recombinant latent TGF-β1 (purchased from R&D Systems) (P01137 30-390 limits assumed): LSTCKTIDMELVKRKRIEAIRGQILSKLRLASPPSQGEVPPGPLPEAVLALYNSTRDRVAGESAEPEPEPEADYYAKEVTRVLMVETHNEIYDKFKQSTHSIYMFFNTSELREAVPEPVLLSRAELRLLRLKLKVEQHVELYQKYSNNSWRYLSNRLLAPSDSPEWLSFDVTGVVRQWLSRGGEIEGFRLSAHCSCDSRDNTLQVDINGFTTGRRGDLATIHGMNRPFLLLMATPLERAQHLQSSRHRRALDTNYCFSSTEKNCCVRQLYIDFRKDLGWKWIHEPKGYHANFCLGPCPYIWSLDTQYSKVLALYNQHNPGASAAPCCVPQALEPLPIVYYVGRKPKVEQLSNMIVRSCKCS
Chain of TSP1 (activation of recombinant latent TGF-β1) (P07996 19-1170): as the sequence (P07996 19-1170) above

CC(=O)N[C@@H](CCCN)C(=O)NC1(C(N)=O)CCCC1 [Compound 13, (S)-1-(2-Acetamido-5-aminopentanamido)cyclopentanecarboxamide] (Ac-[Orn]-[Ac5c]-NH2)
inhibition at 50 pM [1, 10]: 35%

CC(=O)N[C@@H](CCCN)C(=O)Nc1cc(C)c[nH]c1=O [Compound 30, (S)-2-acetamido-5-amino-N-(5-methyl-2-oxo-1,2-dihydropyridin-3-yl)pentanamide]
inhibition at 50 pM [1, 10]: 50%

Thrombospondin 1 (TSP1), purified human platelet TSP-1 (from UniProt P07996 19-1170)
Conc. of Active TGF-β (pM), ELISA which detects only active TGF-β [2]: 4.9 pM

CC(C)C[C@H](NC(=O)[C@H](CCCN)NC(=O)C1CCCC1)C(N)=O [Compound 37, N—((S)-5-amino-1-(((S)-1-amino-4-methyl-1-oxopentan-2-yl)amino)-1-oxopentan-2-yl)cyclopentanecarboxamide]
inhibition at 50 pM [1, 10]: 30%

Thrombospondin 1 [TSP1]
osteoblast differentiation by MSCs (alkaline phosphatase staining, Runx2 expression) (MSCs): Decrease Osteoblast Differentiation | TGF-β activity in CAG MM cells (phospho-Smad 2) (CAG MM cells): Induces TGF-B Activity

LSKL
block of CAG-heparanase MM cell generated TGF-β activity (CAG-heparanase MM cells): 80% | necropsy findings after treatment [3]: no inflammation, no tumors in all major organs, and no impairment of wound healing | plasma stability half-life [4]: 2.1 min | osteoblast differentiation by MSCs (alkaline phosphatase staining, Runx2 expression) (MSCs): Increases Osteoblast Differentiation | TGF-β activity in CAG MM cells (phospho-Smad 2) (CAG MM cells): Reduces TGF-B Activity | MM tumor burden (bioluminescence, serum Ig kappa) (CAG human myeloma cells; 30 mg/kg/day by subcutaneous osmotic pump, 2 and 4 weeks of treatment): Reduces Mm Tumor Burden | phospho-Smad 2 staining in the bone marrow (CAG human myeloma cells; 4 weeks of treatment, tibiae): Reduces Phospho-Smad 2

CCCC(=O)N[C@@H](CCCN)C(=O)N[C@@H](CC(C)C)C(N)=O [Compound 63, (S)-5-amino-N—((S)-1-amino-4-methyl-1-oxopentan-2-yl)-2-butyramidopentanamide] (Butyryl-[Orn]-Leu-NH2)
% Inhibition [5, 11]: 67% | Conc. of Active TGF-β (pM) [5, 11]: 2.2 pM | % Inhibition [5, 12]: 82% | Conc. of Active TGF-β (pM) [5, 12]: 0.7 pM | % Inhibition [5, 13]: 100% | Conc. of Active TGF-β (pM) [5, 13]: 0 pM | % Inhibition at 50 pM ([1]; ELISA-based assay): 59% and 85%

TGF-β
osteoblast differentiation by MSCs (alkaline phosphatase staining, Runx2 expression) (MSCs): Decrease Osteoblast Differentiation

CC(=O)N[C@@H](CCCN)C(=O)NCC(N)=O [Compound 82, (S)-2-acetamido-5-amino-N-(2-amino-2-oxoethyl)pentanamide] (Ac-[Orn]-Gly-NH2)
% Inhibition [5, 11]: 17% | Conc. of Active TGF-β (pM) [5, 11]: 4.2 pM | % Inhibition [5, 12]: 80% | Conc. of Active TGF-β (pM) [5, 12]: 0.79 pM | % Inhibition [5, 13]: 100% | Conc. of Active TGF-β (pM) [5, 13]: 0 pM | inhibition at 50 pM [1, 10]: 100%

CC(=O)N[C@@H](CC(C)C)C(=O)N[C@@H](CCCN)C(N)=O [Compound 61, (S)-2-acetamido-N—((S)-1,5-diamino-1-oxopentan-2-yl)-4-methylpentanamide] (Ac-Leu-[Orn]-NH2)
% Inhibition at 50 pM ([1]; ELISA-based assay): 63% and 99%

CC(=O)N[C@@H](CCCN)C(=O)NC(C)(C)C(N)=O [Compound 8, (S)-2-acetamido-5-amino-N-(1-amino-2-methyl-1-oxopropan-2-yl)pentanamide] (Ac-[Orn]-[Aib]-NH2)
half-life [6]: 5 h | logD (Log D): 1 | Solubility (Solubility): 4.5 µM (≈ 1.16 µg/mL) | half-life [7]: 2.84 h | % Inhibition [5, 11]: 65% | Conc. of Active TGF-β (pM) [5, 11]: 2.3 pM | % Inhibition [5, 12]: 79% | Conc. of Active TGF-β (pM) [5, 12]: 0.81 pM | % Inhibition [5, 13]: 80% | Conc. of Active TGF-β (pM) [5, 13]: 0.78 pM | inhibition at 0.3 µM ([5]; Homo sapiens, read-out: Secondary Assay: % Inhibition at 300 nM): 92% | Tmax [8]: 0.5 h | bioavailability [8]: 5% | half-life ([8]; iv): 1.9 h | inhibition at 50 pM [1, 10]: 100% | inhibition at 50 pM ([1]; read-out: Primary Assay (% Inhibition at 50 pM)): 79%

SLLK
latent TGF-β activation by TSP1 in vitro (TGF-β1 activity vs TSP1+latent TGF-β) [9]: not significant
